Drawing on US5654296A, “Condensed heterocyclic compounds, their production and use” (priority 1994, dated 1997), this text covers IC50 for five compounds.

Structures can show the parent of a compound that is named as a salt.

Assay [1] concerns the target T1, GnRH receptors (rat pituitary anterior lobe membrane fraction) (Rattus norvegicus, UniProt P30969).
T1 construct: the anterior lobe of the pituitary gland was isolated and washed with ice-cooled homogenate buffer; from tissue; host or cells: anterior lobe of the pituitary gland, male Wistar rats (8 weeks old), membrane fraction
T1 sequence (P30969 1-327): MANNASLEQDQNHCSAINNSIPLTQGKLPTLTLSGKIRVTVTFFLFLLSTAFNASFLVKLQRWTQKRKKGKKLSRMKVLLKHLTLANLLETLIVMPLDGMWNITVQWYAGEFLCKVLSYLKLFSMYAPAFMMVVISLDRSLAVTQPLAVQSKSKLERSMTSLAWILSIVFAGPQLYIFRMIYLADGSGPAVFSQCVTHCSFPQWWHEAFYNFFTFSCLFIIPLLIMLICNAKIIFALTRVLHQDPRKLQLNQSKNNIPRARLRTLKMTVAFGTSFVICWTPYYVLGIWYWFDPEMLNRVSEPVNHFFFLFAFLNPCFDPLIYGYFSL
In words: 125I-leuprolerin GnRH receptor binding inhibition test, rat pituitary anterior lobe membrane fraction. Particulars: 4° C., 90 minutes, read-out: Binding inhibitory activity (IC50 μM) Rat. As to the method: Ten (10) μl of 3×10^4 M aqueous leuprolerin solution and 10 μl of 0.01 mg/ml lactoperoxidase were taken in a tube and 10 μl of Na^125 I solution (37 MBq) was added. After stirring, 10 μl of 0.001% H2 O2 was added and the reaction was conducted at room temperature for 20 minutes. Then, 700 μl of 0.05% TFA solution was added to the tube to terminate the reaction and the reaction mixture was purified by reverse-phase HPLC. The HPLC conditions are shown below. ^125 I-leuprolerin was eluted after a retention time of 26-27 minutes. (B) Preparation of a Rat Pituitary Anterior Lobe Membrane Fraction Containing GnRH Receptors […] The pituitary tissue was floated in 2 ml of the homogenate buffer and homogenized using a Polytron homogenizer. The homogenate was centrifuged at 700×G for 15 minutes. The supernatant was taken in an ultracentrifuge tube and centrifuged at 100,000×G for 1 hour to provide a membrane fraction pellet. […] The membrane fraction recovered as a pellet was resuspended in 10 ml of assay buffer, divided into portions, preserved at -80° C. and thawed when needed. […] For the rat and human membrane fractions prepared in (B) and (D), each membrane fraction was diluted with assay buffer to a concentration of 200 μg/ml and distributed in 188 μl portions into tubes. As to the bovine membrane fraction prepared in (C), the membrane fraction was diluted with assay buffer to 750 μg/ml and distributed in 188 μl portions into tubes. […] Where the rat or bovine pituitary anterior lobe membrane fraction was used, the reaction was conducted at 4° C. for 90 minutes. Where the membrane fraction of the CHO with human GnRH receptors expressed was used, the reaction was carried out at 25° C. for 60 minutes. […] After filtration, the radioactivity of ^125 I-leuprolerin remaining on the filter was measured with a γ-counter. The expression (TB-SB)/(TB-NSB)×100 (where SB=radioactivity with the compound added, TB=maximum bound radioactivity, NSB=nonspecifically bound radioactivity) was calculated to find the binding inhibition rate of each test compound.

For the next assay, the system named is serotonine (5-HT) uptake. In words: Activity to inhibit serotonine (5-HT) uptake. The class given is biochemical. Particulars: rat whole brain; 3H-5-HT 10 nM; 37° C.; pH 7.4; read-out: 5-HT uptake inhibitory activity (IC50 μM). In a few lines: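 Rat whole-brain synaptosomal pellet (prepared in sucrose with 10 μM pargyline) in Krebs-Ringer-phosphate buffer pH 7.4, preincubated with test drug 5 min at 37° C. 3H-5-HT (final 10 nM) then added for 5 min at 37° C.; filter-bound radioactivity counted by liquid scintillation; IC50 = dose halving uptake.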

Assay [2] relates to norepinephrine (NE) uptake. Description: Activity to inhibit norepinephrine (NE) uptake. The class given is biochemical. Particulars: rat cerebral cortex; 3H-NE; read-out: NE uptake inhibitory activity (IC50 μM). Here is the method:
The experiment was performed in accordance with the method of Hyttel et al. [Psychopharmacology 60, 13, 1978]. The whole brain of a rat was homogenized in 40 volumes of ice-cooled 0.32M sucrose solution containing 10 μM pargyline and, then, centrifuged (600×G) for 10 minutes. The supernatant was centrifuged (2500×G) for 55 minutes to provide a pellet. This pellet was suspended in Krebs-Ringer-phosphate buffer (pH 7.4; 122 mM NaCl, 4.82 mM KCl, 0.972 mM CaCl2, 1.21 mM MgSO4, 12.7 mM Na2 HPO4, 2.97 mM NaH2 PO4, 0.162 mM EDTA sodium, 10 mM glucose, 1.14 mM ascorbic acid) saturated with a mixed gas (95% O and 5% CO2). To 900 μl of this suspention was added a solution of the test drug (10 μl) in DMSO and the mixture was incubated at 37° C. for 5 minutes. Then, 100 μl of ^3 H-5-HT (final concentration 10 nM) was added and the mixture was further incubated at 37° C. for 5 minutes. This reaction mixture was filtered under suction using a GF/B filter and the filter was washed with 4 ml of the above-mentioned buffer. The radioactivity on the filter was measured by the liquid scintillation method.
(b) Activity to inhibit norepinephrine (NE) uptake
Using the rat cerebral cortex and, as the substrate, ^3 H-NE, an experiment was performed by otherwise the same procedure as described for 5-HT.

Assay [3] concerns 45Ca2+ uptake (veratrine-stimulated, rat cerebral cortex crude synaptosome fraction). In words: 45Ca2+ uptake inhibition experiment. The class given is biochemical. As to conditions: 30 μM veratrine, 37° C., 10 minutes, read-out: 45Ca2+ uptake inhibitory activity (IC50 μM). In a few lines:
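Rat cerebral cortex crude synaptosomes preincubated with test drug 10 min at 37° C, then stimulated with 30 μM veratrine plus 45Ca2+ for 10 min at 37° C; quenched with EGTA, filtered, radioactivity counted by liquid scintillation. Inhibition rate derived from uptake with/without drug and with/without veratrine.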

As usually defined, the IC50 is the concentration that gives 50% inhibition. Take `COc1cc2c(cc1OC)CC1(CCCCN1CCCCC1(c3ccccc3)COCc3ccccc31)CC2` (centres unmarked) [Example I-52, 3,4-Dihydro-6,7-dimethoxy-1'-[4-(4-phenylisochroman-4-yl)butyl]spiro[naphthalene-2(1H),2'-piperidine] hydrochloride]: the IC50 in assay [1] worked out at 0.03 µM.

`COC(=O)c1cccc(CNCCCC2(c3ccccc3)COCc3ccccc32)c1` (stereo not drawn) [Example I-45, Methyl α-[3-(4-Phenylisochroman-4-yl)propylamino]-m-toluate hydrochloride]: the IC50 in assay [1] came out at 0.5 µM.

`c1ccc(CCNCCCC2(c3ccccc3)COCc3ccccc32)cc1` (stereo not drawn) [Example I-24, 4-[3-(β-Phenethylamino)propyl]-4-phenylisochroman hydrochloride]: the 50% inhibitory concentration (IC50) in assay [1] came to 0.9 µM; in the assay on serotonine (5-HT) uptake it was 0.26 µM; in assay [2], 0.22 µM; in assay [3], 1.77 µM.

As for `c1ccc(C2(CCCN3CCCCC34CCc3ccccc3C4)COCc3ccccc32)cc1` (centres unmarked) [Example I-35, 3,4-Dihydro-1'-[3-(4-phenylisochroman-4-yl)propyl]spiro[naphthalene-2(1H),2'-piperidine] hydrochloride], the 50% inhibitory concentration (IC50) in assay [1] was found to be 0.7 µM; with serotonine (5-HT) uptake, 0.13 µM; in assay [2], 0.3 µM; in assay [3] it was 0.14 µM.

On to `COc1ccc2c(c1)CCC1(CCCCN1CCCC1(c3ccccc3)COCc3ccccc31)C2` (centres unmarked) [Example I-36, 3,4-Dihydro-6-methoxy-1'-[3-(4-phenylisochroman-4-yl)propyl]spiro[naphthalene-2(1H),2'-piperidine] hydrochloride], for which the half-inhibitory concentration (IC50) in assay [1] came out at 0.6 µM; with serotonine (5-HT) uptake, 0.0051 µM; in assay [2] it was 0.41 µM; in assay [3] it was 0.76 µM.
